The values below are quoted from earlier work in US20170368087A1, “PHARMACEUTICAL COMPOSITION COMPRISING TOPIRAMATE” (INNOVACO PHARMACEUTICALS, INC., priority 2014, published 2017).

For `CC1(C)O[C@@H]2[C@@H](CO[C@@]3(COS(N)(=O)=O)OC(C)(C)O[C@@H]23)O1` [Topiramate, 2,3:4,5-Di-O-isopropylidene-β-D-fructo-pyranose sulfamate], the “solubility in acetone, dimethyl sulfoxide, ethanol, and alkaline solutions containing sodium hydroxide or sodium phosphate” value is listed as “freely soluble”. The solubility in water entry (room temperature) is on record as “approximately 9.8 mg/mL”.
